Columns and labels:
Assay type in all cases: cell-based, human
caspase-3 gene = test: qRT-PCR expressional level of caspase-3 gene; settings: 10 µg/mL, 24 h
Procedure: Therefore, in this study the expressional levels of caspase-3 as a major apoptosis effector were evaluated in 3a- and 3f-treated HCT-116 and LoVo cell cultures (10 µg/mL, for 24 h incubation), using qRT-PCR analysis.
Briefly, in a 25 mL flask (1 × 10^6 cells/flask), the human colon cancer cell lines (HCT-116 and LoVo) were grown for 24 h. After replacing the culture media with a medium containing 1% FBS for 24 h, the cells were treated with 10 µg/mL of each tested compound in 2 mL of fresh medium containing 1% FBS, or 0.25% DMSO, which was used as the negative control. The cells were adherent cells and they were detached using trypsin after being washed with ice-cold phosphate-buffered saline (PBS).
Primers specific for the Bax, Bcl-2 and Caspase-3 genes were designed using the primer blast (https://www.ncbi.nlm.nih.gov/tools/primer-blast/ accessed on 9 January 2023) software. The primers were used in the RT-qPCR analysis to amplify fragments of 100–200 bp in length (Table 11).
The RNeasy Mini Kit (Qiagen, Hilden, Germany) was used to extract the total RNA. The RNA purity, quality and quantity were checked using a Nanodrop 8000 spectrophotometer (Thermo Fisher Scientific, USA). The Hyperscript Kit (GeneAll, Seoul, Korea) and random hexamers (GeneAll, Seoul, Korea ) were used to reverse-transcript 1 µg of RNA from each sample into cDNA as described in the manufacturer’s protocol.
A QuantStudio 7Flex Detection System (Applied Biosystems, Thermo Fischer Scientific, Inc., USA) was used to measure the mRNA expression of Bax, Caspase-3 and Bcl-2. The reactions for the synthesis of cDNA were carried out using an iScript One-Step RT-PCR Kit with SYBR Green (cat no: 170–8892; Bio-Rad, Inc., Hercules, CA, USA). Briefly, primers (Table 10) were added to the reaction mixture at a final concentration of 10 pM. Thus, 5 µL of each cDNA sample were added to a […] PCR mixture consisting of 12.5 µL of 2 × iScript One-Step RT-PCR Kit with SYBR Green, 0.5 µL of primers for Bax, Caspase-3 and Bcl-2 as well as GAPDH (Macrogen, Seoul, Korea), and 7 µL RNase/DNase-free water (Qiagen, DE). The thermal cycling conditions for Bax, Caspase-3 and Bcl-2 were established as 5 min at 95 °C, followed by 40 cycles of 30 s at 95 °C and 30 s at 60 °C, and finally 10 s at 95 °C. The presence of a single melting temperature peak verified the specificity of each primer. The expression of a house-keeping gene, GAPDH, was used as an endogenous control for the current work.

HCT-116 carcinoma cells = test: Cell cycle assay (PI flow cytometry), HCT-116; settings: 50 µg/mL, 48 h
Procedure: (§1) In the current study, the cell cycle distribution of the treated HCT-116 and LoVo carcinoma cells with compounds 3a and 3f was assessed by labeling the cell’s DNA with PI stain in order to determine if the induction of apoptosis in carcinoma cells could be related to the cell cycle arrest (Figure 8A–F). The intensity of the PI stain is proportional to the cell’s DNA content (Figure 9). […] The ability of the tested compounds (3a and 3f) to block the cell cycle progression in LoVo and HCT-116 cells confirmed their anticancer potential against these colon carcinoma cell lines and could explain the mechanism of the observed cytotoxicity.
(§2) Changes in cell cycle distribution induced by compounds 3a and 3f were analyzed using a flow cytometric analysis according to Nicoletti et al. 1991 [108] using a Propidium Iodide Flow Cytometry Kit for Cell Cycle Analysis (Abcam-UK). HCT-116 and LoVo carcinoma cells (5 × 10^4 cells/mL) were treated with DMSO as a negative control, and compounds 3a and 3f (50 µg/mL), for 48 h. After the centrifugation of the treated cells at 1800 rpm for 5 min, the pellet was washed twice with PBS. Then, the cells were fixed by mixing […] of 90% cold ethanol, and stained with propidium iodide (PI) for 1 h at 37 °C. […] The stained cells were analyzed for their DNA content using a BD FACSC flow cytometer.

LoVo carcinoma cells = test: Cell cycle assay (PI flow cytometry), LoVo; settings: 50 µg/mL, 48 h
Procedure: as §1, §2

| Compound | Expression level of caspase-3 gene (upregulated) (caspase-3 gene; HCT-116, vs negative control) | Expression level of caspase-3 gene (upregulated) (caspase-3 gene; LoVo, vs negative control) | Cells in G1 phase (%DIP G1) (HCT-116 carcinoma cells) | Cells in G2/M phase (%DIP G2/M) (LoVo carcinoma cells) |
| --- | --- | --- | --- | --- |
| O=c1c2cc(Cl)ccc2[nH]c(=S)n1-c1cccc(C(F)(F)F)c1 [Compound 3a, 6-Chloro-2-thioxo-3-(3-trifluoromethyl-phenyl)-2,3-dihydro-1H-quinazolin-4-one] | 3.731 fold | 2.6026 fold | 53.51% | 22.64% |
| O=c1c2cc(Cl)ccc2[nH]c(=S)n1-c1ccc([N+](=O)[O-])cc1 [Compound 3f, 6-Chloro-3-(4-nitro-phenyl)-2-thioxo-2,3-dihydro-1H-quinazolin-4-one] | 6.071 fold | 6.9340 fold | 57.81% | 29.16% |
